In PMC10895652, “Preclinical Evaluation of Novel Positron Emission Tomography (PET) Probes for Imaging Leucine-Rich Repeat Kinase 2 (LRRK2)” (Journal of Medicinal Chemistry, 2024):

Tests used:
LRRK2 = biological target: T1, LRRK2 (Rattus norvegicus, UniProt F1LNJ1); experiment: In vitro autoradiography in rat brain sections; format: binding
T1 construct: from tissue; host or cells: rat brain (Sprague-Dawley rats)
Experimental: The general procedure for autoradiography studies was described previously with minor revision in this work.[36],[40] Brain sections from rats were preincubated with Tris-HCl buffer (50 mM), MgCl2 (1.2 mM) and CaCl2 (2 mM) solution for 20 min at ambient temperature, followed by incubation with [^11C]3 and [^18F]4 (0.48 nM). […] After incubation, brain sections were rinsed with ice-cold buffer 3 times for 2 min and dipped in cold distilled water for 10 s. The brain sections were dried with cold air and then placed on imaging plates (BAS-MS2025, GE Healthcare, NJ) for optimized contact periods. Autoradiograms were obtained and regions of interest (ROIs) were carefully drawn with the reference of naked-eye observation. Radioactivity was measured using an Amersham Typhoon 5 analyzer system and expressed as photostimulated luminescence values per unit area (PSL/mm^2) or normalized to % of radioactivity vs control.

[1] = Radiometabolic analysis in mouse brain homogenate; format: in vivo; settings: 30 min post tracer administration
Experimental: With the established good BBB penetration ability of [^18F]4, we then performed ex vivo biodistribution studies to obtain more in-depth information on the whole-body distribution and clearance of [^18F]4. Mice were sorted into four groups based on their survival intervals (5, 15, 30, and 60 min) after intravenous administration of [^18F]4. […] To investigate the in vivo stability of [^18F]4 in mouse brains, we conducted a radiometabolic analysis in mouse brain homogenate at 30 min post tracer administration.

LRRK2-G2019S = experiment: PET imaging in LRRK2-G2019S mutant versus wild-type mice; format: in vivo, mouse; settings: brain, G2019S mice versus WT mice, p ≤ 0.001
Experimental: The general procedure for PET studies was described previously[35],[41] with minor modification in this work. Briefly, PET scans were carried out by a Genisys 4 PET scanner (Sofie Biosciences, Culver, CA). Mice were kept under anesthesia using 1–2% (v/v) isoflurane during the scan. The radiotracer (ca. 45 μCi/100 μL) was injected into the tail vein via a preinstalled catheter. A dynamic scan in 3D list mode was acquired for 60 min. The PET dynamic images were reconstructed using G4 software (Analysis Tools and System Setup/Diagnostics Tool, Sofie Biosciences). The radioactivity was decay-corrected and expressed as the standardized uptake value: SUV = (radioactivity per mL tissue/injected radioactivity) × body weight.

T1 sequence (F1LNJ1 1-2526): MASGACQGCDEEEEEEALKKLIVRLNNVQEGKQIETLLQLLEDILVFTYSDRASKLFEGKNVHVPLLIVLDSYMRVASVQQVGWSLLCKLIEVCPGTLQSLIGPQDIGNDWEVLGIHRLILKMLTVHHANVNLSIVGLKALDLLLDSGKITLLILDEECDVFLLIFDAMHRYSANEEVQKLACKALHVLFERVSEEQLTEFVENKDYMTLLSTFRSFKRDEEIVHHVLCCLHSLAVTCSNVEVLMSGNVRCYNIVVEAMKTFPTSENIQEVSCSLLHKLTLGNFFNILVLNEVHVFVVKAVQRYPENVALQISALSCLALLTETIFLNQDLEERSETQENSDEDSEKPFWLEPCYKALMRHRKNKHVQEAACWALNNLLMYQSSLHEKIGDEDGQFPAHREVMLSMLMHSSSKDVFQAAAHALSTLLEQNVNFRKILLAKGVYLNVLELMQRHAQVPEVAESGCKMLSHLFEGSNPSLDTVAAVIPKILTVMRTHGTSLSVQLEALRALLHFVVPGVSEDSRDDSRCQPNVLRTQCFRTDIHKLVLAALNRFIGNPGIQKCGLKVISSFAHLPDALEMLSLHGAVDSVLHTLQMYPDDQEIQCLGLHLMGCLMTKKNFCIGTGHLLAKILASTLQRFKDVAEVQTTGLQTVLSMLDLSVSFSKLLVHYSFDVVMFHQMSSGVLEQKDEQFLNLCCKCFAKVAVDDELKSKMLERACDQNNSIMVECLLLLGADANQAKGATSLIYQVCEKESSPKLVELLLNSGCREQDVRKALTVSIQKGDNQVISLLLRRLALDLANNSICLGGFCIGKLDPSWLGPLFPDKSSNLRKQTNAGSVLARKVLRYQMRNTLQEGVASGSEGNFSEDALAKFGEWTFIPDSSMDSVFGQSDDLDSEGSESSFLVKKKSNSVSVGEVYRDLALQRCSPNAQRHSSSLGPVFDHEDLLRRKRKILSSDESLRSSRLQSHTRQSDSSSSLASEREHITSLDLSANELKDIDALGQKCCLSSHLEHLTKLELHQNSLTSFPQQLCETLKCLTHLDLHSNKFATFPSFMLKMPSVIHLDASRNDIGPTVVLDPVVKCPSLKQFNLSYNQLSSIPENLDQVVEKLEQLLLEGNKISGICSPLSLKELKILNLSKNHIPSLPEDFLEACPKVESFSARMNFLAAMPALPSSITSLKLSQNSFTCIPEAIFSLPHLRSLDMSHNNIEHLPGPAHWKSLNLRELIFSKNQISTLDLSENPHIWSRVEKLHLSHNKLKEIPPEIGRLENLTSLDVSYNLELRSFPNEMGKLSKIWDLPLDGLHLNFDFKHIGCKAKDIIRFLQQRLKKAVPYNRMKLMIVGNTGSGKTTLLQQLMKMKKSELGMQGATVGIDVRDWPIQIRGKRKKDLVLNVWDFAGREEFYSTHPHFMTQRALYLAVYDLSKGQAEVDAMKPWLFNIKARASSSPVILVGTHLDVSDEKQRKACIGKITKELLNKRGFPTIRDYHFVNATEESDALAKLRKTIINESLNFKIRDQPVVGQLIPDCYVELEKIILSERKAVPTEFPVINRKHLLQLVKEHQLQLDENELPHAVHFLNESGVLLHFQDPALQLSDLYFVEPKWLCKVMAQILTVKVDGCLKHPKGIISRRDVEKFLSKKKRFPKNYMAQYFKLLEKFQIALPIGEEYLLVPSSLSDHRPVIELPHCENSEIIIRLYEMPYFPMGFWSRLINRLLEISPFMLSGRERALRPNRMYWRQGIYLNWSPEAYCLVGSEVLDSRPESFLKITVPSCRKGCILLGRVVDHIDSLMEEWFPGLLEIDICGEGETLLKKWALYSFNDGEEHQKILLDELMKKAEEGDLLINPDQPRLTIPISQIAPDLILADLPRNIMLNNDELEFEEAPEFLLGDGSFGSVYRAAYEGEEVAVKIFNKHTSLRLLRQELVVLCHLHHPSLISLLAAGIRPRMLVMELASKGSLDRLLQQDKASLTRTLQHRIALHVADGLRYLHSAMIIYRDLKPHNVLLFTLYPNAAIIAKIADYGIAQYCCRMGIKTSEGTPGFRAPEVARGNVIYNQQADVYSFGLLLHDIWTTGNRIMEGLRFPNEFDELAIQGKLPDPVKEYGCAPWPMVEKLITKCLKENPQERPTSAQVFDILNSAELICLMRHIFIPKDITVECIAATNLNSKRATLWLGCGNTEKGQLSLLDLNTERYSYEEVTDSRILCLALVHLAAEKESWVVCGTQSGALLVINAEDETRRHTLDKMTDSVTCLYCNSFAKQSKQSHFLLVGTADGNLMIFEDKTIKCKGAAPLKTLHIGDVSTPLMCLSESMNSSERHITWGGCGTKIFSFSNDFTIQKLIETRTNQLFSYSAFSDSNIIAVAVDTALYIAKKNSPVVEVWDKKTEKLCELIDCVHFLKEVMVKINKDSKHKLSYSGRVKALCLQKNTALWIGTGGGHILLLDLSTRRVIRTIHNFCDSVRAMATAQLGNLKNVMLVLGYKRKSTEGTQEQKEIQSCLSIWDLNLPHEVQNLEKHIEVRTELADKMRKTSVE

radioactivity levels under blocking with GNE-0877 (LRRK2; LRRK2-deficient brain regions (cerebellum and midbrain)): no obvious blocking results
radioactivity levels under blocking with GNE-0877 (LRRK2; LRRK2-rich brain regions (hippocampus, cerebral cortex, striatum, thalamus)): significantly reduced
parent fraction in mouse brain homogenate [1]: 69%
Compound: N#Cc1cccc(-c2c[nH]c3ncnc(N4CCOCC4)c23)c1[18F] [[^18F]4]
increase of radioactivity accumulation based on AUC (LRRK2-G2019S): around 22%
